Where a SMILES comes first, the peptide text is derived from it. Bridges are numbered along the chain shown (N, C = ends).
Tests used:
[1] = tested on: Caspase cascade pathway in HL-60 cells; assay: Gene expression profiling and Oncobox pathway analysis; format: cell-based, human; conditions: versus intact cells, Oncobox
Protocol: To get a deeper molecular insight into the mechanisms of cell death induced by PM III, we profiled gene expression in the PM III treated (1.25, 2.5, and 5 µM) and intact HL-60 cells. Gene expression profiles were further analyzed using the Oncobox bioinformatical platform to measure activation levels of 376 intracellular signaling pathways. We found a significant inhibition of the Caspase cascade (Figure 6), while the TRAF (tumor necrosis factor receptor (TNF-R)-associated factor) pathway was strongly activated (Figure 7) following the PM III treatment. An additional line of evidence for the non-apoptotic mechanism of the PM III mediated activity was provided by the PTEN pathway. […] The activation levels of all signaling pathways profiled in this study and case-to-normal ratios for the respective genes are shown in Supplementary Table S1. Taken together, these facts rather argue for a non-apoptotic mode of the PM III action.
RNA extraction was performed immediately before preparation of sequencing libraries using a QIAGEN RNeasy Kit (Qiagen, Venlo, Netherlands) following the manufacturer’s protocol. Then, the RNA Integrity Number (RIN) was measured using an Agilent 2100 bio-Analyzer. Agilent RNA 6000 Nano or Qubit RNA Assay Kits were used to measure RNA concentration. A KAPA RNA Hyper with RiboErase (KAPA Biosystems, Wilmington, MA, USA) kit was used for further depletion of ribosomal RNA. […] Library concentrations and quality were measured using a Qubit ds DNA HS Assay kit (Life Technologies, Carlsbad, CA, USA) and Agilent Tapestation (Agilent, Santa Clara, CA, USA). RNA sequencing was performed using Illumina HiSeq 3000 equipment for single-end sequencing, 50 bp read length, for approximately 30 million raw reads per each sample. […]
The SABiosciences knowledge base was used to determine structures of intracellular molecular pathways as described previously. […] CNRs were calculated as the ratios of expression levels of a gene in the experimental samples to average expression levels in the control samples. […]

human cell lines = assay: MTT cytotoxic activity assay, IC50 summarised over cell lines; format: cell-based; conditions: all human cells tested; MTT 48 h; read-out: IC50 range on human cancer, transformed, and normal cell lines
Protocol: Cytotoxic activities of PM III, its isoforms, and tachyplesins against seven human cell lines were evaluated. Four cancer (HL-60 acute promyelocytic leukemia, HeLa cervix adenocarcinoma, SK-BR-3 breast adenocarcinoma, A549 lung carcinoma), one transformed (HEK 293T transformed human embryonic kidney), and two normal human cell lines (HEF human embryonic fibroblasts and NHA normal human astrocytes) were used for these experiments. Cytotoxicity was measured by incubating the cells with serial dilutions of PM I, PM II, PM III, TP I, TP II, or TP III samples followed by MTT assay after 48 h. The half-maximal inhibitory concentrations (IC50) were measured as the peptide concentration at which cell viability was reduced by 50% in comparison to untreated cells (Table 3).
The colorimetric 3-(4,5-dimethylthiazol-2-yl)-2,5-diphenyltetrazolium bromide (MTT) dye reduction assay was used to determine the cytotoxicity of the polyphemusins and tachyplesins. Cells (3 × 10^3–6 × 10^3 per well) were placed into 96-well plates in Dulbecco’s modified Eagle’s medium (DMEM/F12) supplemented with 10% fetal bovine serum (FBS). […] The absorbance at 570 nm was measured by a microplate reader (Eppendorf, Hamburg, Germany).

HL-60 cells = assay: Annexin V-FITC/propidium iodide double staining and flow cytometry; format: cell-based, human; conditions: for double-stained cells, Q2-2 (AV+PI+, late apoptotic/necrotic): 4 h
Text: To further investigate the effect of PM III on human cells, we performed annexin V-FITC/propidium iodide double staining with subsequent flow cytometric analysis. Annexin V-FITC binds to phosphatidylserine, which is exposed on the outer leaflet of the cellular plasma membrane at the initial stages of apoptosis, whereas propidium iodide (PI) preferentially stains nuclei of dead cells. Therefore, a combination of annexin V-FITC and PI assays allows differentiation between early apoptotic and late apoptotic/necrotic cell populations. PM III was used at two final concentrations of 2.5 and 5 μM. In order to elucidate the predominant mechanism of the PM III action, we applied a widely used caspase inhibitor, Z-VAD-FMK [23].
Cell death analysis with fluorescein isothiocyanate conjugated annexin V (annexin V-FITC)/propidium iodide double staining and dead cells counting with flow cytometry were performed 4 h after addition of polyphemusin III up to a final concentration of 2.5 or 5 μM. The Annexin V-FITC Apoptosis Detection Kit (BD Biosciences, Franklin Lakes, NJ, USA) was used according to the manufacturer’s protocol on a NovoCyte flow cytometer (ACEA Biosciences, San Diego, CA, USA). Each experiment was performed in triplicate. The apoptosis inducer camptothecin (Sigma-Aldrich, St. Louis, MO, USA) and the general caspase inhibitor, Z-VAD-FMK (BD Biosciences, Franklin Lakes, NJ, USA), were used. All flow cytometry experiments were performed twice.

## CC(C)[C@@H]1NC(=O)[C@H](CCCNC(=N)N)NC(=O)[C@H](Cc2ccccc2)NC(=O)[C@@H](NC(=O)CNC(=O)[C@H](CCCNC(=N)N)NC(=O)[C@@H](N)CCCNC(=N)N)CSSC[C@@H](C(=O)N[C@@H](CCCNC(=N)N)C(=O)O)NC(=O)[C@H](CCCNC(=N)N)NC(=O)[C@H](CCC(N)=O)NC(=O)[C@H](Cc2ccccc2)NC(=O)[C@@H]2CSSC[C@H](NC1=O)C(=O)N[C@@H](Cc1ccc(O)cc1)C(=O)N[C@@H](CCCNC(=N)N)C(=O)NCC(=O)N[C@@H](Cc1ccccc1)C(=O)N2 [PM III, polyphemusin III] (H-RRGCFRVCYRGFCFQRCR-OH; disulfide 4-17, 8-13 (inferred); N-terminus assumed)
[1]; HL-60, 1.25 μM
  Caspase Cascade: PAS (pathway activation strength): -13.08
[1]; HL-60, 2.5 μM
  Caspase Cascade: PAS (pathway activation strength): -13.96
[1]; HL-60, 5 μM
  Caspase Cascade: PAS (pathway activation strength): -16.64
Human cell lines
  IC50: < 10 µM
HL-60 cells; HL-60, 2.5 µM, 50 μM Z-VAD-FMK added
  double-stained cells, Q2-2 (AV+PI+, late apoptotic/necrotic): > 30%
HL-60 cells; HL-60, 2.5 µM, no Z-VAD-FMK
  double-stained cells, Q2-2 (AV+PI+, late apoptotic/necrotic): > 40%
HL-60 cells; HL-60, 5 µM, 50 μM Z-VAD-FMK added
  double-stained cells, Q2-2 (AV+PI+, late apoptotic/necrotic): > 70%
HL-60 cells; HL-60, 5 µM, no Z-VAD-FMK
  double-stained cells, Q2-2 (AV+PI+, late apoptotic/necrotic): > 80%
HL-60 cells; HL-60, 4 h of incubation, 50 μM Z-VAD-FMK
  influence of the caspase inhibitor Z-VAD-FMK on the effect of the substance (annexin V-FITC/PI staining): almost not affected
